This note sets out measurements from patent US5420289A, “Substituted indole-, indene-, pyranoindole- and tetrahydrocarbazole-alkanoic acid derivatives as inhibitors of PLA2 and lipoxygenase” (American Home Products Corporation, priority 1993, dated 1995).

In assay [1] the target is T1, human synovial fluid PLA2 (Homo sapiens, UniProt P14555).
T1 sequence (P14555 21-144): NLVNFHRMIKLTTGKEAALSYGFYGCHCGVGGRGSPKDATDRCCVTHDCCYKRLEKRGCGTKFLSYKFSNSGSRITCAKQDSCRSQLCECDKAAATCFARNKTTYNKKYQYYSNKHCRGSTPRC
The assay is described as follows: in vitro isolated phospholipase A2 assay, human synovial fluid PLA2 (Example 74). More on the design: inhibition / % Inhibition, HSF (human synovial fluid): dose or concentration left out as unconfirmed. Particulars: read-out: % Inhibition, HSF (human synovial fluid). The class given is biochemical. On the procedure:
(§1) The compounds of the invention are tested in an in vitro isolated phospholipase A2 assay to determine the ability of the test compounds to inhibit the release of arachidonic acid from an arachidonic acid-containing substrate by the action of phospholipase A2 enzyme from human and non-human sources.
(§2) This assay is carried out as follows:
(§3) Into a 15 mL polypropylene tube are added the following:
(§4) ^6 Two human PLA2 enzymes are used:
b) Purified human synovial fluid.
(§5) Incubate the 100mL reaction mixture for 10 minutes at 37° C. in a shaking water bath. The reaction is terminated by the addition of 2 mL tetrahydrofuran, followed by vortexlag. NH2 columns (100 mg/mL--Analytichem International) are conditioned with 0.5 mL tetrahydrofuran followed by 0.5 mL tetrahydrofuran/water (2 mL:0.1 mL, v/v).
(§6) The sample is loaded onto the columns and slowly drawn through them. The hydrolyzed arachidonic acid retained in the columns is eluted therefrom with 1 mL tetrahydrofuran/glacial acetic acid (2%). The arachidonic acid is transferred to scintillation vials and quantitated by b-counting analysis. A "total counts" sample is prepared by pipetting […] ^3 H-arachidonate E. coli directly into a scintillation vial to which is added 1 mL tetrahydrofuran. 10 mL aquasol (scintillation cocktail) is added to all samples. [formula]

In assay [2] the test system is 5-lipoxygenase in human whole blood. In words: inhibition of 5-lipoxygenase in human whole blood (Example 79). Particulars: for % Inhibition of LTB4: 25 μM; for IC50: human whole blood, read-out: IC50 (inhibition of LTB4). The class given is cell-based. The method, then:
The assay of this Example measures the ability of the compounds tested to inhibit 5-lipoxygenase in human whole blood.
as §2
Blood is obtained in 50-100 ml quantities from male donors. White blood cell counts and differentials are made. Two ml of blood are placed in a 15 ml polypropylene test tube. Compounds are solubilized in dimethylsulfoxide and diluted 1:10 in 10% bovine serum albumin in phosphate buffered saline, pH 7.4 resulting in a final dimethylsulfoxide concentration of 0.1% in the blood. Then, compounds are added to the blood in a shaking water bath at 37° C. for 10 minutes prior to the addition of […] calcium ionophore (A23187; Sigma). After ionophore administration, whole blood samples are mixed and incubated for 20 minutes at 37° C. in a shaking water bath. Incubation is terminated by placing samples in an ice bath and immediately adding ethylene glycol-bis-(b-aminoethyl ether)-N,N,N',N'-tetraacetic acid (10 mM). Samples are mixed and centrifuged at 1200 × g for 15 minutes at 4° C. Preparation of samples for evaluation by RIA or ELISA is carried out by the following protocol. Plasma is removed from sample tubes, placed in 15 ml polypropylene test tubes containing 8 ml methanol, and then vortexed to precipitate protein. Samples are stored at -70° C. overnight. The next day, samples are centrifuged at 200 × g for 15 minutes at 4° C. to pellet the precipitate. Samples are dried in a Savant speed vac concentrator, reconstituted to original volume with ice cold RIA or ELISA buffer, and stored at -70° C. until assayed. The assay for eicosanoids (LTB4, T×B2, and PGE2) is performed as described by the manufacturer of the [^3 H]-RIA kit or ELISA kit (LTB4 -Amersham, TxB2 and PGE2 - Caymen Chemical).
The total eicosanoid level in 2 ml of blood is calculated and reported as ng/10^6 neutrophils. […] Drug effects are expressed as percent change from control values.
Compounds tested in vitro are solubilized in dimethylsulfoxide and diluted 1:10 in 10% bovine serum albumin in phosphate buffer saline resulting in a final dimethylsulfoxide concentration of 0.1% i n the blood.

The target in another assay is T2, human platelet PLA2 (Homo sapiens, UniProt P14555).
T2 construct: Semi-purified human platelet acid extract PLA2; from tissue; host or cells: human platelets (semi-purified acid extract)
T2 sequence (P14555 21-144): T1 sequence (P14555 21-144)
The assay is described as follows: in vitro isolated phospholipase A2 assay, human platelet PLA2 (Example 74). The class given is biochemical. More on the design: dose or concentration left out as unconfirmed. As to conditions: read-out: % Inhibition, HP (human platelet). The method, then:
as §1, §2, §3, §4
a) Semi-purified human platelet acid extract PLA2 (in 10 mM
sodium acetate buffer, pH 4.5). Remove protein precipitate by
centrifugation at about 2200 rpm for 10 minutes.
as §5, §6

In general, inhibition refers to the relative decrease from the control value, in per cent. In the case of `COc1cccc(Cn2c(C)c(CC(=O)O)c3cc(OCc4csc(-c5ccccc5)n4)ccc32)c1` [Example 60, 5-[(2-Phenyl-4-thiazolyl)methoxy)-1-[[(3-methoxy)phenyl]methyl]-2-methyl-1H-indole-3-acetic acid], the inhibition in assay [1] is 84%; on human platelet PLA2 it was 3%. For the same compound, in assay [2], the “% Inhibition of LTB4” value worked out at 35%.
For the compound `Cc1c(CCO)c2cc(OCc3csc(-c4ccccc4)n3)ccc2n1Cc1ccccc1` [Example 55, 5-[(2-Phenyl-4-thiazolyl)methoxy]-1-(phenylmethyl)-2-methyl-1H-indole-3-ethanol], the inhibition in assay [1] came out at 4%; on human platelet PLA2, 13%. Moreover, in assay [2], the “% Inhibition of LTB4” value stood at 19%.
As for `Cc1c(CC(=O)O)c2cc(OCc3csc(-c4ccccc4)n3)ccc2n1Cc1ccc(C(C)(C)C)cc1` [Example 62, 5-[(2-Phenyl-4-thiazolyl)methoxy]-1-[[4-(1,1-dimethylethyl)phenyl]methyl]-2-methyl-1H-indole-3-acetic acid hemihydrate], the inhibition in assay [1] worked out at 30%; at human platelet PLA2 it was 3%.
Turning to `CSc1ccc(Cn2c(C)c(CC(=O)O)c3cc(OCc4nc5ccccc5s4)ccc32)cc1` [Example 54, 5-(2-Benzothiazolylmethoxy)-1-[[4-(methylthio)phenyl]methyl]-2-methyl-1H-indole-3-acetic acid], the values for the inhibition (in assay [1]; at human platelet PLA2) were 44% and 2%, respectively. Also, the “% Inhibition of LTB4” value in assay [2] is reported as 11%.
For `Cc1c(CC(=O)O)c2cc(OCc3nc4ccccc4s3)ccc2n1Cc1ccccc1` [Example 51, 5-(2-Benzothiazolylmethoxy)-1-(phenylmethyl)-2-methyl-1H-indole-3-acetic acid] the same measures were 88%, 41% and 5%.
For `Cc1c(CC(=O)O)c2cc(OCc3csc(-c4ccccc4)n3)ccc2n1Cc1csc(-c2ccc(Cl)cc2)n1` [Example 65, 5-[(2-Phenyl-4-thiazolyl)methoxy]-1-[[2-(4-chlorophenyl)-4-thiazolyl]methyl]-2-methyl-1H-indole-3-acetic acid] the same measures were 89%, 85% and 22%.
With `CCOC(=O)Cc1c(C)n(Cc2csc(-c3ccc(Cl)cc3)n2)c2ccc(OCc3csc(-c4ccccc4)n3)cc12` [Example 64, 5-[(2-Phenyl-4-thiazolyl)methoxy]-1-[[2-(4-chlorophenyl)-4-thiazolyl]methyl]-2-methyl-1H-indole-3-acetic acid ethyl ester], the results for the inhibition (in assay [1]; at human platelet PLA2) were 4% and 1%, respectively.
Broadly, the IC50 is the concentration at which inhibition is half-maximal. Regarding `Cc1c(CC(=O)N(C)O)c2cc(OCc3nc4ccccc4s3)ccc2n1Cc1ccc(Cl)cc1` [Example 49, 5-(2-Benzothiazolylmethoxy)-1-[(4-chlorophenyl)methyl]N-hydroxyl-N,2-dimethyl-1H -indole-3-acetamide], the inhibition came out at 4% in assay [1] and 6% on human platelet PLA2. Besides, in assay [2], the “% Inhibition of LTB4” value is given as 61%. The 50% inhibitory concentration (IC50) in assay [2] was found to be 12.3 µM.
For the compound `Cc1c(CC(=O)NOCc2ccccc2)c2cc(OCc3nc4ccccc4s3)ccc2n1Cc1ccc(Cl)cc1` [Example 48, 5-(2-Benzothiazolylmethoxy)-1-[(4-chlorophenyl)methyl]-N-(phenylmethoxy)-2-methyl-1H-indole-3-acetamide], the inhibition in assay [1] is 54%; at human platelet PLA2, 4%.
For the compound `CCOC(=O)Cc1c(C)n(Cc2ccc(Cl)cc2)c2ccc(OCc3csc(-c4ccc(Cl)cc4)n3)cc12` [Example 68, 5-[[2-(4-Chlorophenyl)-4-thiazolyl]methoxy]-1-[(4-chlorophenyl)methyl]-2-methyl-1H-indole-3-acetic acid ethyl ester], the inhibition worked out at 0% in assay [1] and 2% at human platelet PLA2.
Turning to `Cc1c(CC(=O)NO)c2cc(OCc3nc4ccccc4s3)ccc2n1Cc1ccc(Cl)cc1` [Example 46, 5-(2-Benzothiazolylmethoxy)-1-[(4-chlorophenyl)methyl]-N-hydroxyl-2-methyl-1H-indole-3-acetamide], the inhibition in assay [1] was found to be 48%. Also, in assay [2], the “% Inhibition of LTB4” value came to 30% and the IC50 is 14.9 µM. Also, on human platelet PLA2, the inhibition stood at 13%.
Turning to `CC(=O)OCCc1c(C)n(Cc2ccccc2)c2ccc(OCc3csc(-c4ccccc4)n3)cc12` [Example 56, 5-[(2-Phenyl-4-thiazolyl)methoxy]-1-(phenylmethyl)-2-methyl-1H-indole-3-ethanol acetate ester], the “% Inhibition of LTB4” value in assay [2] was determined as 2%. Besides, on human platelet PLA2, the inhibition turned out to be 2%.
Consider `Cc1c(CC(=O)O)c2cc(OCc3csc(-c4ccc(Cl)cc4)n3)ccc2n1Cc1ccc(Cl)cc1` [Example 69, 5-[[2-(4-Chlorophenyl)-4-thiazolyl]methoxy]-1-[(4chlorophenyl)methyl]-2-methyl-1H-indole-3-acetic acid], for which the inhibition in assay [1] was 54%; at human platelet PLA2 it was 8%.
For the compound `CCOC(=O)Cc1c(C)n(Cc2ccc3ccccc3c2)c2ccc(OCc3csc(-c4ccccc4)n3)cc12` [Example 66, 5-[(2-Phenyl-4-thiazolyl)methoxy]-1-(2-naphthalenylmethyl)-2-methyl-1H-indole-3acetic acid ethyl ester], the inhibition turned out to be 6% in assay [1] and 1% on human platelet PLA2.
Consider `Cc1c(CC(=O)O)c2cc(OCc3coc(-c4ccccc4)n3)ccc2n1Cc1ccccc1` [Example 71, 5-[(2-Phenyl-4-oxazolyl)methoxy]-1-(phenylmethyl)-2-methyl-1H-indole-3-acetic acid hemihydrate.], for which the values for the inhibition (in assay [1]; at human platelet PLA2) were 91% and 44%, respectively.
With `CONC(=O)Cc1c(C)n(Cc2ccc(Cl)cc2)c2ccc(OCc3nc4ccccc4s3)cc12` [Example 47, 5-(2-Benzothiazolylmethoxy)-1-[(4-chlorophenyl)methyl]-N-methoxy-2-methyl-1H-indole-3-acetamide hemihydrate.], the inhibition in assay [1] amounted to 2%; on human platelet PLA2 it was 5%. Moreover, in assay [2], the “% Inhibition of LTB4” value is listed as 31%.
As for `Cc1c(CC(=O)O)c2cc(OCc3csc(-c4ccccc4)n3)ccc2n1CCCc1ccccc1` [Example 63, 5-[(2-Phenyl-4-thiazolyl)methoxy]-1-(3-phenylpropyl)-2methyl-1H-indole-3-acetic acid], the results for the inhibition (in assay [1]; at human platelet PLA2) were 34% and 2%, respectively.
